Molecular target: MAPK14 (UniProt Q16539)
Experiment: Enzyme Assay

MAPK14, sequence (Q16539 whole entry, looked up): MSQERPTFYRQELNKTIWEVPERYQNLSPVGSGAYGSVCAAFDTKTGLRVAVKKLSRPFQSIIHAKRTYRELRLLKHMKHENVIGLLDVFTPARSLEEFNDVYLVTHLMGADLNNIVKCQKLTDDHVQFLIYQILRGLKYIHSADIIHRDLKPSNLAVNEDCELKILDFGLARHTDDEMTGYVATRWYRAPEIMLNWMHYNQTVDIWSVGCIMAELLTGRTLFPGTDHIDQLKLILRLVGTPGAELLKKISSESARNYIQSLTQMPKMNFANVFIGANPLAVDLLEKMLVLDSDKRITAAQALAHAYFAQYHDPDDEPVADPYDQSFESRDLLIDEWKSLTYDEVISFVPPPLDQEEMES

Compound | IC50
Nc1ncccc1OCc1ccc(Cl)cc1Cl | < 1000 µM
Cc1cccc(COc2cccnc2N)c1F | < 1000 µM
Nc1ncccc1OCc1cccc2ccoc12 | < 1000 µM
Clc1ncccc1OCc1ccccc1 | < 2000 µM
Clc1cccc(Cl)c1COc1ccc(N2CCOCC2)nc1 | < 1000 µM
Nc1ncccc1OCc1ccccc1CS(=O)(=O)c1ccccc1 | < 1000 µM
Nc1ncccc1OCc1cccc(Cl)c1F | < 1000 µM
Nc1nccnc1OCc1c(Cl)cccc1Cl | < 1000 µM
Nc1ccc(Cl)c(COc2cnccn2)c1 | < 1000 µM
Clc1cccc(Cl)c1COc1ccc(NCc2ccccc2)nc1 | < 200 µM
O=C1c2ccccc2CN1c1ccc(F)c(COc2cccnc2)c1 | < 1000 µM
Clc1cccc(Cl)c1COc1cnc(N2CCOCC2)cn1 | < 200 µM
O=S(=O)(c1ccccc1)N(c1ccc(Cl)c(COc2cccnc2)c1)S(=O)(=O)c1ccccc1 | < 1000 µM
Nc1ncc(OCc2cccc3ccccc23)nc1Br | < 1000 µM
Nc1ncccc1OCc1c(F)cc(F)cc1F | < 1000 µM
Nc1ccc(Cl)c(COc2cccnc2)c1 | < 1000 µM
Nc1ncccc1OCc1ccc(F)c(F)c1 | < 1000 µM
CC(C)(C)OC(=O)Nc1ccc(Cl)c(COc2cnccn2)c1 | < 1000 µM
Nc1ncccc1OCc1cccc(C(=O)NCc2cccc3ccccc23)c1 | < 1000 µM
Nc1ncccc1OCc1ccc(F)cc1Cl | < 1000 µM

Compound | IC50
c1cc(COc2cccnc2)cc(COc2cccnc2)c1 | < 1000 µM
CN1CCCC(CNC(=O)c2cnc(OCc3c(Cl)cccc3Cl)cn2)C1 (stereo unspecified) | < 1000 µM
OCCNc1ccc(OCc2ccccc2)cn1 | < 200 µM
O=S(=O)(Nc1ccc(Cl)c(COc2cccnc2)c1)c1ccccc1 | < 200 µM
O=C(CC1CCOCC1)Nc1cnc(OCc2c(Cl)cccc2Cl)cn1 | < 200 µM
Clc1cccc(Cl)c1COc1cnc(NC2CCOCC2)cn1 | < 200 µM
O=C1c2ccccc2C(=O)N1c1ccc(Cl)c(COc2cccnc2)c1 | < 1000 µM
Nc1ncccc1OCc1c(F)cccc1Cl | < 1000 µM
CNc1cnc(OCc2c(Cl)cccc2Cl)cn1 | < 200 µM
CCNC(=O)c1cnc(OCc2c(Cl)cccc2Cl)cn1 | < 1000 µM
O=C(Nc1ccccc1)Oc1cccc(COc2cnccn2)c1 | < 200 µM
Nc1ncccc1OCc1cccc(OC(F)(F)F)c1 | < 10000 µM
Nc1ncccc1OCc1cccc(C(=O)NCC2CC2)c1 | < 1000 µM
CC(C)(C)c1ccc2[nH]cc(CC(=O)Nc3ccc(F)c(COc4cnccn4)c3)c2c1 | < 200 µM
O=C(CN1CCOCC1)Nc1cnc(OCc2c(Cl)cccc2Cl)cn1 | < 200 µM
Nc1ccncc1OCc1cccc2ccccc12 | < 1000 µM
NS(=O)(=O)CCNC(=O)c1cnc(OCc2c(Cl)cccc2Cl)cn1 | < 1000 µM
Nc1cnc(OCc2ccccc2)cn1 | < 1000 µM
O=C(Nc1cccc(COc2cccnc2)c1)c1ccccc1 | < 200 µM
Nc1ncccc1OCc1cc2c(cc1Cl)OCO2 | < 1000 µM

The next lines start with the values.

IC50 | Compound
< 20 µM | O=C(Nc1ccc(F)c(COc2cccnc2)c1)c1cncc(N2CCOCC2)n1
< 2 µM | CC(C)(CO)NC(=O)Nc1cnc(OCc2c(Cl)cccc2Cl)cn1
< 20 µM | CC(C)c1nnc(NC(=O)Nc2ccc(F)c(COc3cnccn3)c2)s1
< 2 µM | CC(C)(C)c1cc(NC(=O)Nc2ccc(F)c(COc3cnccn3)c2)n(-c2ccncc2)n1
< 20 µM | CC(C)(C)c1csc(NC(=O)Nc2ccc(F)c(COc3cnccn3)c2)n1
< 2 µM | O=C(Nc1ccc(F)c(COc2cnccn2)c1)Nc1nnc(C2CCCO2)s1 (stereo unspecified)
< 200 µM | O=C(Nc1ccc(F)c(COc2cnccn2)c1)Nc1ncc(-c2ccc(Cl)cc2)s1
< 20 µM | O=C(Nc1cccc(COc2cccnc2)c1)c1cc(F)cc(N2CCOCC2)c1
< 2 µM | O=C(Nc1ccc(F)c(COc2cccnc2)c1)c1cc(F)cc(N2CCOCC2)c1
< 2 µM | CC(C)(C)c1cc(NC(=O)Nc2ccc(F)c(COc3cnccn3)c2)n(-c2ccccc2)n1
< 200 µM | Cc1cc(C)cc(COc2cccnc2N)c1
< 200 µM | O=C(Nc1ccc(F)c(COc2cnccn2)c1)c1ccc(-c2ccccc2)cc1
< 2 µM | CC(C)(C)c1cc(NC(=O)Nc2ccc(F)c(COc3cnccn3)c2)n(-c2ccc(F)cc2F)n1
< 200 µM | CC(C)(C)C(=O)Nc1cnc(OCc2c(Cl)cccc2Cl)cn1
< 200 µM | CSc1nnc(NC(=O)Nc2ccc(F)c(COc3cnccn3)c2)s1
< 200 µM | Nc1ncccc1OCc1ccc(Cl)c(F)c1
< 200 µM | Nc1cnc(OCc2c(Cl)cccc2Cl)cn1
< 20 µM | CC(C)(C)c1cc(NC(=O)Nc2ccc(F)c(COc3cnccn3)c2)n(-c2nc3ccccc3s2)n1
< 20 µM | CC(C)(Cc1ccncc1)NC(=O)c1cnc(OCc2c(Cl)cccc2Cl)cn1
< 2 µM | O=C(Nc1ccc(F)c(COc2cnccn2)c1)Nc1cc(C2CCOCC2)nn1-c1ccc(F)cc1
< 10 µM | Nc1ncccc1OCc1ccccc1-c1ccccc1
< 2 µM | O=C(Nc1ccc(Cl)c(COc2ccc(NCc3ccccc3)nc2)c1)c1cc(F)cc(N2CCOCC2)c1
< 20 µM | CC(C)(C)c1ccc(C(=O)Nc2ccc(F)c(COc3cnccn3)c2)cc1

IC50 | Compound
< 2 µM | O=C(Nc1ccc(Cl)c(COc2cnccn2)c1)c1ccnc(N2CCOCC2)c1
< 2 µM | CC(C)(C)c1cc(NC(=O)Nc2ccc(F)c(COc3cnccn3)c2)n(-c2ccc(S(C)(=O)=O)cc2)n1
< 2 µM | Cc1ccc(-n2nc(C(C)(C)C)cc2NC(=O)Nc2ccc(F)c(COc3cnccn3)c2)cc1
< 20 µM | O=C(Nc1ccc(Cl)c(COc2cccnc2)c1)c1cccc(Cl)c1
< 20 µM | CC(C)(CO)NC(=O)c1cnc(OCc2c(Cl)cccc2Cl)cn1
< 2 µM | Cc1cc(-n2nc(C(C)(C)C)cc2NC(=O)Nc2ccc(F)c(COc3cnccn3)c2)nc(C)n1
< 20 µM | O=C(Nc1ccc(Cl)c(COc2cccnc2)c1)c1ccccc1
< 2 µM | O=C(Nc1ccc(F)c(COc2cnccn2)c1)Nc1nnc(CC2CC2)s1
< 2 µM | O=C(Nc1ccc(F)c(COc2cnccn2)c1)Nc1cc(-c2ccccc2)[nH]n1
< 20 µM | O=C(Nc1ccc(Cl)c(COc2cccnc2)c1)c1cccc(C(F)(F)F)c1
< 2 µM | O=C(Nc1ccc(F)c(COc2cnccn2)c1)Nc1cc(-c2ccc(Cl)cc2)nn1-c1ccccc1
< 2 µM | CC(C)(C)c1cccc(C(=O)Nc2ccc(Cl)c(COc3cccnc3)c2)c1
< 2 µM | O=C(Nc1ccc(Cl)c(COc2cccnc2)c1)c1ccnc(N2CCOCC2)c1
< 20 µM | CC(C)(C)c1cc(C(=O)Nc2ccc(F)c(COc3cnccn3)c2)n(Cc2ccccc2)n1
< 20 µM | CC(C)(C)c1cc(C(=O)Nc2ccc(F)c(COc3cnccn3)c2)n(Cc2ccc(F)cc2)n1
< 100 µM | Cc1ccc2ccccc2c1COc1cccnc1N
< 20 µM | CC(C)(C)c1cc(NC(=O)Nc2ccc(Cl)c(COc3cnccn3)c2)[nH]n1
< 20 µM | CC(Nc1cnc(OCc2c(Cl)cccc2Cl)cn1)c1ccccc1 (stereo unspecified)
< 20 µM | O=C(Cn1ccnc1)Nc1cnc(OCc2c(Cl)cccc2Cl)cn1
< 2 µM | O=C(Nc1ccc(F)c(COc2cnccn2)c1)c1cc(N2CCOCC2)nc(N2CCOCC2)n1
< 20 µM | O=C(Nc1ccc(F)c(COc2cnccn2)c1)Oc1cccc(C(F)(F)F)c1
< 2 µM | O=C(Nc1ccc(F)c(COc2cnccn2)c1)Nc1nnc(Cc2ccccc2)s1
< 2 µM | Cc1nc(-c2cccc(C(=O)Nc3ccc(F)c(COc4cnccn4)c3)c2)cs1
